Each compound was assayed against NaV1.3 (Homo sapiens, UniProt Q9NY46) (assay: VIPR optical membrane potential assay, NaV1.3 inhibition). Conditions: activity against NaV 1.3 channel.
NaV1.3, sequence (Q9NY46 whole entry): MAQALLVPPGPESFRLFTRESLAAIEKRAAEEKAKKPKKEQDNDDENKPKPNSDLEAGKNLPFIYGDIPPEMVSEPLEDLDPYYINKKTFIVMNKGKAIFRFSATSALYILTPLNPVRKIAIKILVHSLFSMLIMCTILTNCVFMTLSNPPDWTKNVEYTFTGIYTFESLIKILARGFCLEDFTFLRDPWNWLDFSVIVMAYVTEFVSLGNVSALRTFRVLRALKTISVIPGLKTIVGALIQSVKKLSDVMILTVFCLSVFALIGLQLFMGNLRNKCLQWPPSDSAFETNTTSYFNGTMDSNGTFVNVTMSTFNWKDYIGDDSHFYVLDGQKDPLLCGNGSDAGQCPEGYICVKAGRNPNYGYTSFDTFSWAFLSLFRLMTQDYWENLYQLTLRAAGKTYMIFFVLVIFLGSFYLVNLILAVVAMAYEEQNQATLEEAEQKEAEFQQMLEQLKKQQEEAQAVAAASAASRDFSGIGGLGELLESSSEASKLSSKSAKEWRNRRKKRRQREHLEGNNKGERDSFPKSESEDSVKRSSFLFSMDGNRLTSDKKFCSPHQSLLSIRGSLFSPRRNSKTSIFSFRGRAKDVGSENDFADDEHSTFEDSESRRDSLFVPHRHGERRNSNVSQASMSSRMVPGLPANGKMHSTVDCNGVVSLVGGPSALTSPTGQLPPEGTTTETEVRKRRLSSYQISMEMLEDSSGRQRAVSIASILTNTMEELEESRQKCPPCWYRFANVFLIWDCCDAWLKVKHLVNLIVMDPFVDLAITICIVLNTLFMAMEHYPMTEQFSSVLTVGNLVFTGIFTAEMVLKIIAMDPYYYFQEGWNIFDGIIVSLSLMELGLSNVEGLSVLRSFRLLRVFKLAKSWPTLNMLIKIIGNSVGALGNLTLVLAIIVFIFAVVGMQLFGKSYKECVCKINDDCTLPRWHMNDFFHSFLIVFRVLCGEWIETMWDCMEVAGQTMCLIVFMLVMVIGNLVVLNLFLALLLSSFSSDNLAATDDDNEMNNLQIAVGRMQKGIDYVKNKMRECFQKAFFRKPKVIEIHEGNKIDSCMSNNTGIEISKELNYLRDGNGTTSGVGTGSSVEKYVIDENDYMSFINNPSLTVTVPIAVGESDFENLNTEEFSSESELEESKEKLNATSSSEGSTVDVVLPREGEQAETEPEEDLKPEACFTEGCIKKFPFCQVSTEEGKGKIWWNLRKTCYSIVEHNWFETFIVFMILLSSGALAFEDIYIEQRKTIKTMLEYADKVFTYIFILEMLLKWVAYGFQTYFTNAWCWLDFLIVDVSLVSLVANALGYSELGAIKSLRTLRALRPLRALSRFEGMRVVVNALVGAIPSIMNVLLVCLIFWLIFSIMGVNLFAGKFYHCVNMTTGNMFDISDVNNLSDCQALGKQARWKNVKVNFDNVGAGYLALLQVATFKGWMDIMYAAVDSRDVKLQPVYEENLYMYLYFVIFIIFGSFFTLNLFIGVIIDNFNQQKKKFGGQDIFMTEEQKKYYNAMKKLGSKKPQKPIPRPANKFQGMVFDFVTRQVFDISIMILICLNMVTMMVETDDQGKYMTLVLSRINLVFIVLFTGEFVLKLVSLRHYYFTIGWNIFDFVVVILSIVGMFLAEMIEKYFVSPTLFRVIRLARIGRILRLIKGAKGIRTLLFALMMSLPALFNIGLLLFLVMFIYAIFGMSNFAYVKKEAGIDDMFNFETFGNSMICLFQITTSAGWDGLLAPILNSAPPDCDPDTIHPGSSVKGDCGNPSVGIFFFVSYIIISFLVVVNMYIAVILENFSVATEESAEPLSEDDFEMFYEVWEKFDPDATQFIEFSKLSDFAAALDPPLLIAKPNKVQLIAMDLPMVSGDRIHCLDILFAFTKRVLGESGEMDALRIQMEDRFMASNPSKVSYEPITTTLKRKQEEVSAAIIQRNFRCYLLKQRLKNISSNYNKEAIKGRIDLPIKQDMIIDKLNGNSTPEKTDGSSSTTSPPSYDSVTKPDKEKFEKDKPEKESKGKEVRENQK
Assay type: cell-based
Design: expressed in transfected cells; host or cells: HEK293
Procedure: Antagonist properties of test compounds were assessed as follows. Cells expressing the NaV of interest were placed into microtiter plates. After an incubation period, the cells were stained with fluorescent dyes sensitive to the transmembrane potential. The test compounds were added to the microtiter plate. The cells were stimulated with either a chemical or electrical means to evoke a NaV dependent membrane potential change from unblocked channels, which was detected and measured with trans-membrane potential-sensitive dyes. Antagonists were detected as a decreased membrane potential response to the stimulus.
The following is an example of how NaV1.3 inhibition activity is measured using the optical membrane potential method#2. Other subtypes are performed in an analogous mode in a cell line expressing the NaV of interest.
HEK293 cells stably expressing NaV1.3 are plated into 96-well microtiter plates. After an appropriate incubation period, the cells are stained with the voltage sensitive dyes CC2-DMPE/DiSBAC2(3) as follows.
2× CC2-DMPE=20 μM CC2-DMPE: 10 mM CC2-DMPE is vortexed with an equivalent volume of 10% pluronic, followed by vortexing in required amount of HBSS containing 10 mM HEPES. Each cell plate will require 5 mL of 2× CC2-DMPE. 50 μL of 2× CC2-DMPE is to wells containing washed cells, resulting in a 10 μM final staining concentration. The cells are stained for 30 minutes in the dark at RT.
2× DISBAC2(3) with ABSC1=6 μM DISBAC2(3) and 1 mM ABSC1: The required amount of 10 mM DISBAC2(3) is added to a 50 ml conical tube and mixed with 1 μL 10% pluronic for each mL of solution to be made and vortexed together. Then HBSS/HEPES is added to make up 2× solution. Finally, the ABSC1 is added.
The 2× DiSBAC2(3) solution can be used to solvate compound plates. Note that compound plates are made at 2× drug concentration. Wash stained plate again, leaving residual volume of 50 μL. Add 50 μL/well of the 2× DiSBAC2(3) w/ABSC1. Stain for 30 minutes in the dark at RT.
The instrument comprises a microtiter plate handler, an optical system for exciting the coumarin dye while simultaneously recording the coumarin and oxonol emissions, a waveform generator, a current- or voltage-controlled amplifier, and a device for inserting electrodes in well. Under integrated computer control, this instrument passes user-programmed electrical stimulus protocols to cells within the wells of the microfilter plate.
Insert or use electrodes into each well to be assayed.
Use the current-controlled amplifier to deliver stimulation wave pulses for 3 s. Two seconds of pre-stimulus recording are performed to obtain the un-stimulated intensities. Five seconds of post-stimulation recording are performed to examine the relaxation to the resting state.
Data are analyzed and reported as normalized ratios of background-subtracted emission intensities measured in the 460 nm and 580 nm channels. Background intensities are then subtracted from each assay channel. Background intensities are obtained by measuring the emission intensities during the same time periods from identically treated assay wells in which there are no cells. The response as a function of time is then reported as the ratios obtained using the following formula: […]
The data is further reduced by calculating the initial (Ri) and final (Rf) ratios. These are the average ratio values during part or all of the pre-stimulation period, and during sample points during the stimulation period. The response to the stimulus ? =Rf/Ri is then calculated.
Control responses are obtained by performing assays in the presence of a compound with the desired properties (positive control), such as tetracaine, and in the absence of pharmacological agents (negative control). Responses to the negative (N) and positive (P) controls are calculated as above. The compound antagonist activity A is defined as:
[formula] where R is the ratio response of the test compound.
With `O=C(COc1ccc(F)cc1)N1CCc2cc(S(=O)(=O)Nc3nccs3)ccc21` [Compound 14] the IC50 was < 2000 nM.
With `O=C(COc1ccc(F)c(Cl)c1)N1CCCc2cc(S(=O)(=O)Nc3ncns3)ccc21` [Compound 36] the IC50 was 2000 to 5000 nM.
`O=C(c1ccc(F)cc1F)N1CCc2cc(S(=O)(=O)Nc3ncns3)ccc21` [Compound 118] was tested, and the IC50 was > 5000 nM.
For `O=S(=O)(Nc1nccs1)c1ccc2c(c1)CCN2CCNc1cnc2ccccc2c1` [Compound 22], the IC50 was > 5000 nM.
With `C[C@H](C(=O)N1Cc2ccc(S(=O)(=O)Nc3ccc(Cl)nn3)cc2C1)N1CCCc2cc(Cl)ccc21` [Compound 146] the IC50 was > 5000 nM.
With `CC(Oc1ccccc1)C(=O)N1CCc2ccc(S(=O)(=O)Nc3nccs3)cc2C1` (centres unmarked) [Compound 8] the IC50 was > 5000 nM.
For `COc1cccc(NCC(=O)N2CCc3cc(S(=O)(=O)Nc4nccs4)ccc32)c1` [Compound 165], the IC50 was > 5000 nM.
For `O=C(CCn1ccc2cc(Cl)ccc21)N1CCc2ccc(S(=O)(=O)Nc3nccs3)cc2C1` [Compound 121], the IC50 was < 2000 nM.
In the case of `O=C(CNC1CCC1)N1CCc2cc(S(=O)(=O)Nc3nccs3)ccc21` [Compound 161], the IC50 is reported as > 5000 nM.
With `O=C(COc1ccc(F)cc1)N1Cc2ccc(S(=O)(=O)Nc3nccs3)cc2C1` [Compound 115] the IC50 was < 2000 nM.
For `O=C(CNC1CCCCC1)N1CCc2cc(S(=O)(=O)Nc3nccs3)ccc21` [Compound 104], the IC50 was > 5000 nM.
In the case of `Cc1cccc(C)c1OCC(=O)N1CCc2cc(S(=O)(=O)Nc3nccs3)ccc21` [Compound 138], the IC50 is reported as < 2000 nM.
For `O=C(c1ccccc1F)N1CCc2ccc(S(=O)(=O)Nc3nccs3)cc2C1` [Compound 123], the IC50 was 2000 to 5000 nM.
With `Cc1ccc(C(=O)N2CCc3cc(S(=O)(=O)Nc4nccs4)ccc32)cc1Cl` [Compound 82] the IC50 was < 2000 nM.
With `COc1ccc(NCCN2CCc3cc(S(=O)(=O)Nc4nccs4)ccc32)cc1` [Compound 100] the IC50 was > 5000 nM.
With `O=C(Cc1ccc(F)cc1F)N1CCc2cc(S(=O)(=O)Nc3nccs3)ccc21` [Compound 196] the IC50 was < 2000 nM.
`COc1cccc(CCC(=O)n2ccc3cc(S(=O)(=O)Nc4nccs4)ccc32)c1` [Compound 18] was tested, and the IC50 was < 2000 nM.
`O=C(CNc1ccc(F)c(Cl)c1)N1CCc2cc(S(=O)(=O)Nc3nccs3)ccc21` [Compound 48] was tested, and the IC50 was 2000 to 5000 nM.
With `Cc1ccc(C(=O)n2ccc3cc(S(=O)(=O)Nc4nccs4)ccc32)cc1Cl` [Compound 191] the IC50 was > 5000 nM.
Compound `COc1ccc(F)cc1C(=O)N1CCc2cc(S(=O)(=O)Nc3nccs3)ccc21` [Compound 83] has an IC50 of 2000 to 5000 nM.
With `O=C(COc1ccc(F)cc1)N1CCc2cc(S(=O)(=O)Nc3ncns3)ccc21` [Compound 42] the IC50 was < 2000 nM.
Work on `O=C(c1ccc(F)c(F)c1F)N1CCc2cc(S(=O)(=O)Nc3ncns3)ccc21` [Compound 6] yielded an IC50 of 2000 to 5000 nM.
For `CC(C(=O)N1Cc2ccc(S(=O)(=O)Nc3nccs3)cc2C1)n1ccc2ccccc21` (centres unmarked) [Compound 17], the IC50 was < 2000 nM.
With `O=C(Oc1ccccc1)N1CCc2cc(S(=O)(=O)Nc3nccs3)ccc21` [Compound 163] the IC50 was 2000 to 5000 nM.
For `O=C(c1ccc(F)cc1F)N1CCCc2cc(S(=O)(=O)Nc3nccs3)ccc21` [Compound 95], the IC50 was > 5000 nM.
With `O=C(c1ccccc1Cl)N1CCc2cc(S(=O)(=O)Nc3nccs3)ccc21` [Compound 40] the IC50 was > 5000 nM.
For `Cc1cccc(OCC(=O)N2CCc3cc(S(=O)(=O)Nc4nccs4)ccc32)c1` [Compound 1], the IC50 was < 2000 nM.
With `O=C(COc1ccnc2c(C(F)(F)F)cccc12)N1Cc2ccc(S(=O)(=O)Nc3ncns3)cc2C1` [Compound 122] the IC50 was < 2000 nM.
With `O=C(COc1ccccc1)N1Cc2ccc(S(=O)(=O)Nc3nccs3)cc2C1` [Compound 199] the IC50 was < 2000 nM.
In the case of `O=C(c1ccc(F)cc1)N1CCCc2cc(S(=O)(=O)Nc3nccs3)ccc21` [Compound 114], the IC50 is reported as > 5000 nM.
In the case of `O=C(COc1ccc(F)c(Cl)c1)N1CCCc2cc(S(=O)(=O)Nc3nccs3)ccc21` [Compound 154], the IC50 is reported as < 2000 nM.
For `CC(Oc1cc(Cl)ccc1Cl)C(=O)N1CCc2cc(S(=O)(=O)Nc3nccs3)ccc21` (centres unmarked) [Compound 21], the IC50 was < 2000 nM.
In the case of `COc1ccc(CCC(=O)N2CCc3cc(S(=O)(=O)Nc4nccs4)ccc32)cc1` [Compound 159], the IC50 is reported as < 2000 nM.
In the case of `O=C(COc1ccccc1)N1CCc2ccc(S(=O)(=O)Nc3nccs3)cc2C1` [Compound 12], the IC50 is reported as > 5000 nM.
With `C[C@H](C(=O)N1CCc2cc(S(=O)(=O)Nc3nccs3)ccc21)n1ccc2ccccc21` [Compound 87] the IC50 was < 2000 nM.
In the case of `CC(C)(Oc1ccc(Cl)cc1)C(=O)N1CCc2cc(S(=O)(=O)Nc3nccs3)ccc21` [Compound 9], the IC50 is reported as < 2000 nM.
With `O=C(CN1CCc2ccc(Cl)cc2C1)N1CCc2cc(S(=O)(=O)Nc3nccs3)ccc21` [Compound 44] the IC50 was < 2000 nM.
Compound `COc1ccccc1CC(=O)N1CCc2cc(S(=O)(=O)Nc3nccs3)ccc21` [Compound 10] has an IC50 of 2000 to 5000 nM.
For `O=C(COc1ccc(Cl)cc1)N1CCc2cc(S(=O)(=O)Nc3nccs3)ccc21` [Compound 49], the IC50 was < 2000 nM.
`Cc1ccc(C(=O)N2CCc3cc(S(=O)(=O)Nc4nccs4)ccc32)cc1` [Compound 7] was tested, and the IC50 was 2000 to 5000 nM.
`O=C(c1ccccc1F)N1CCc2cc(S(=O)(=O)Nc3ncns3)ccc21` [Compound 34] was tested, and the IC50 was > 5000 nM.
In the case of `COc1cc(NCC(=O)N2CCc3cc(S(=O)(=O)Nc4nccs4)ccc32)cc(OC)c1` [Compound 108], the IC50 is reported as > 5000 nM.
With `O=C(CN1CCc2ccc(F)cc2C1)N1CCc2cc(S(=O)(=O)Nc3nccs3)ccc21` [Compound 137] the IC50 was < 2000 nM.
For `O=C(c1ccc(Cl)c(Cl)c1)N1CCc2cc(S(=O)(=O)Nc3ncns3)ccc21` [Compound 89], the IC50 was < 2000 nM.
With `C[C@H](C(=O)N1CCc2cc(S(=O)(=O)Nc3nccs3)ccc21)n1ccc2ccccc21` [Compound 20] the IC50 was < 2000 nM.
With `Cc1ccc(C(=O)N2CCc3cc(S(=O)(=O)Nc4nccs4)ccc32)cc1` [Compound 47] the IC50 was < 2000 nM.
`CC(C)(Oc1ccc(Cl)cc1)C(=O)n1ccc2cc(S(=O)(=O)Nc3nccs3)ccc21` [Compound 173] gave an IC50 of 2000 to 5000 nM.
With `O=C(Cn1ccc2cccc(Cl)c21)N1Cc2ccc(S(=O)(=O)Nc3ccncn3)cc2C1` [Compound 56] the IC50 was < 2000 nM.
`Cc1nnc(NS(=O)(=O)c2ccc3c(c2)CN(C(=O)[C@@H](C)N2CCCc4cc(Cl)ccc42)C3)s1` [Compound 98] gave an IC50 of 2000 to 5000 nM.
`Cc1ccc(OCC(=O)N2CCc3cc(S(=O)(=O)Nc4nccs4)ccc32)cc1` [Compound 181] was tested, and the IC50 was < 2000 nM.
In the case of `O=C(COc1ccc(Cl)cc1Cl)n1ccc2cc(S(=O)(=O)Nc3nccs3)ccc21` [Compound 183], the IC50 is reported as 2000 to 5000 nM.
`COc1cccc(CC(=O)N2CCc3cc(S(=O)(=O)Nc4ncns4)ccc32)c1` [Compound 31] was tested, and the IC50 was < 2000 nM.
`COc1cc(C(=O)n2ccc3cc(S(=O)(=O)Nc4nccs4)ccc32)ccc1C` [Compound 55] showed an IC50 of 2000 to 5000 nM.
`CC(Oc1ccccc1)C(=O)N1CCc2cc(S(=O)(=O)Nc3ncns3)ccc21` (centres unmarked) [Compound 125] was tested, and the IC50 was < 2000 nM.
With `O=C(COc1cccc(Cl)c1)N1CCCc2cc(S(=O)(=O)Nc3nccs3)ccc21` [Compound 111] the IC50 was < 2000 nM.
In the case of `CC(C)(C)c1ccc(OCC(=O)N2CCc3ccc(S(=O)(=O)Nc4nccs4)cc3C2)cc1` [Compound 150], the IC50 is reported as > 5000 nM.
`O=S(=O)(Nc1nccs1)c1ccc2c(c1)CCN2CCNc1nc2ccccc2[nH]1` [Compound 66] was tested, and the IC50 was > 5000 nM.
`O=C(CCc1ccccc1)n1ccc2cc(S(=O)(=O)Nc3nccs3)ccc21` [Compound 189] was tested, and the IC50 was < 2000 nM.
With `CC(Oc1ccc(OC(F)(F)F)cc1)C(=O)N1CCc2ccc(S(=O)(=O)Nc3nccs3)cc2C1` (centres unmarked) [Compound 141] the IC50 was > 5000 nM.
For `O=C(COc1cccc(Cl)c1)N1CCc2cc(S(=O)(=O)Nc3nccs3)ccc21` [Compound 131], the IC50 was < 2000 nM.
For `O=C(c1ccccc1F)N1CCCc2cc(S(=O)(=O)Nc3nccs3)ccc21` [Compound 96], the IC50 was > 5000 nM.
With `COc1ccc(NCC(=O)N2CCc3cc(S(=O)(=O)Nc4nccs4)ccc32)cc1F` [Compound 184] the IC50 was > 5000 nM.
